# Assay results taken from patent publication US20080108641A1, “Compounds for treating inflammatory disorders, demyelinating disdorders and cancers” (priority 2006, published 2008).
# Legend:
# IL-4 = experiment: Mediator release, IL-4 (Con A-stimulated PBML, sandwich ELISA); format: cell-based; details: Homo sapiens
# Method: In this experiment, test compound and/or vehicle were preincubated with human peripheral blood mononuclear leukocyte (PBML, 1×10^6/ml) in RPMI buffer pH 7.4 for 2 hours. Concanavalin A (Con A, 20 μg/ml) was then added to stimulate the cells overnight in 5% CO2 at 37° C. IL-4 and IL-10 cytokine levels in the conditioned medium were then quantified using a sandwich ELISA kit. Compounds were screened at 10, 1, 0.1, 0.01 and 0.001 μM.
# [1] = system: B-lymphocyte cells isolated from the spleen; experiment: Cell proliferation, B-Cell + LPS ([3H]thymidine incorporation); format: cell-based, balb/c mice; details: Mus musculus
# Method: B-lymphocyte cells isolated from the spleen of balb/c mice weighing 17±1 g were used. Test compound and/or vehicle were incubated with the cells (1.5×10^6/ml) in the presence of 10 μg/ml lipopolysaccharide (LPS) in AIM-V medium pH 7.4 at 37° C. for 24 hours. [^3H]Thymidine (120 nM) was then added for an additional overnight incubation period. Thymidine incorporation was assessed by liquid scintillation counting.
# (§1) Test compound-induced suppression of cell proliferation by 50 percent or more (≧50%) relative to vehicle control response indicates significant inhibitory activity.
# [2] = system: T-lymphocyte cells isolated from thymus; experiment: Cell proliferation, T-Cell + Con A ([3H]thymidine incorporation); format: cell-based, balb/c mice; details: Mus musculus
# Method: T-lymphocyte cells isolated from thymus of balb/c mice weighing 17±1 g were used. Test compound and/or vehicle is incubated with the cells (4×10^6/ml) in the presence of 3 μg/mL Concanavalin A (Con A) in AIM-V medium pH 7.4 at 37° C. for 24 hours. [^3H]Thymidine (120 nM) was then added for an additional overnight incubation period. Thymidine incorporation was assessed by liquid scintillation counting. Compounds were screened at 10, 1, 0.1, 0.01 and 0.001 μM.
# as §1
# [3] = system: colorectal cancer cell lines (HT29 & HCT116); experiment: Microarray differential gene expression (CodeLink Human Whole Genome Bioarrays); format: cell-based
smiles,measurement,setting,value
CCN(CC)CCNc1ccc2ncn3c4ccc(O)cc4c(=O)c1c23 [Symadex™],inhibition at 0.001 µM,"IL-4; 1 nM, read-out: % Growth Inhibition",8%
same,inhibition at 0.01 µM,"IL-4; 10 nM, read-out: % Growth Inhibition",7%
same,inhibition at 0.1 µM,"IL-4; 0.1 μM, read-out: % Growth Inhibition",2%
same,inhibition at 1 µM,"IL-4; 1 μM, read-out: % Growth Inhibition",-9%
same,inhibition at 10 µM,"IL-4; 10 μM, read-out: % Growth Inhibition",105%
same,IC50,IL-4; IL-4 release,3330 nM
same,IC50,[1],38 nM
same,inhibition at 0.001 µM,[1]; read-out: % Growth Inhibition,0%
same,inhibition at 0.01 µM,[1]; read-out: % Growth Inhibition,38%
same,inhibition at 0.1 µM,[1]; read-out: % Growth Inhibition,80%
same,inhibition at 1 µM,[1]; read-out: % Growth Inhibition,101%
same,inhibition at 10 µM,[1]; read-out: % Growth Inhibition,103%
same,IC50,[2],14 nM
same,inhibition at 0.001 µM,[2]; read-out: % Growth Inhibition,10%
same,inhibition at 0.01 µM,[2]; read-out: % Growth Inhibition,44%
same,inhibition at 0.1 µM,[2]; read-out: % Growth Inhibition,82%
same,inhibition at 1 µM,[2]; read-out: % Growth Inhibition,103%
same,inhibition at 10 µM,[2]; read-out: % Growth Inhibition,104%
same,number of down-regulated genes significantly represented in both cell types,"[3]; array of 55,000 gene fragment accessions, cells grown at concentration",271
same,MEAN FOLD CHANGE OVER CONTROL,[3]; gene ACYP1,−2.07
same,MEAN FOLD CHANGE OVER CONTROL,[3]; gene ADCYAP1,−21.74
same,MEAN FOLD CHANGE OVER CONTROL,[3]; gene ADH1C,−12.02
same,MEAN FOLD CHANGE OVER CONTROL,[3]; gene AGT,−22.71
same,MEAN FOLD CHANGE OVER CONTROL,[3]; gene ALG5,−2.71
same,MEAN FOLD CHANGE OVER CONTROL,[3]; gene ANAPC4,−1.92
same,MEAN FOLD CHANGE OVER CONTROL,[3]; gene APOA1,−13.15
same,MEAN FOLD CHANGE OVER CONTROL,[3]; gene ARL6IP,−2.29
same,MEAN FOLD CHANGE OVER CONTROL,[3]; gene ASAH2,−2.21
same,MEAN FOLD CHANGE OVER CONTROL,[3]; gene HAT1,−2.63
same,MEAN FOLD CHANGE OVER CONTROL,[3]; gene HMGB1,−1.97
same,MEAN FOLD CHANGE OVER CONTROL,[3]; gene HMMR,−2.94
same,MEAN FOLD CHANGE OVER CONTROL,[3]; gene HNF4A,−7.42
same,MEAN FOLD CHANGE OVER CONTROL,[3]; gene HNRPA2B1,−1.93
same,MEAN FOLD CHANGE OVER CONTROL,[3]; gene HSGT1,−2.08
same,MEAN FOLD CHANGE OVER CONTROL,[3]; gene HSPB2,−13.76
same,MEAN FOLD CHANGE OVER CONTROL,[3]; gene IBSP,−58.56
same,MEAN FOLD CHANGE OVER CONTROL,[3]; gene IL1RAP,−11.23
same,MEAN FOLD CHANGE OVER CONTROL,[3]; gene IL1RL1,−28.60
same,MEAN FOLD CHANGE OVER CONTROL,[3]; gene IL7R,−25.20
same,MEAN FOLD CHANGE OVER CONTROL,[3]; gene IL13RA2,−9.79
same,MEAN FOLD CHANGE OVER CONTROL,[3]; gene ITGA2B,−10.64
same,MEAN FOLD CHANGE OVER CONTROL,[3]; gene ITGA9,−27.91
same,MEAN FOLD CHANGE OVER CONTROL,[3]; gene ITGAE,−2.12
same,MEAN FOLD CHANGE OVER CONTROL,[3]; gene ITGB3BP,−2.73
same,MEAN FOLD CHANGE OVER CONTROL,[3]; gene ITSN1,−15.06
same,MEAN FOLD CHANGE OVER CONTROL,[3]; gene KCNJ12,−15.93
same,MEAN FOLD CHANGE OVER CONTROL,[3]; gene KCNJ15,−6.83
same,MEAN FOLD CHANGE OVER CONTROL,[3]; gene KCNQ2,−24.13
same,MEAN FOLD CHANGE OVER CONTROL,[3]; gene KIAA0089,−7.23
same,MEAN FOLD CHANGE OVER CONTROL,[3]; gene KIF2C,−2.52
same,MEAN FOLD CHANGE OVER CONTROL,[3]; gene KIF5A,−11.04
same,MEAN FOLD CHANGE OVER CONTROL,[3]; gene KLRG1,−24.24
same,MEAN FOLD CHANGE OVER CONTROL,[3]; gene KRT13,−3.34
same,MEAN FOLD CHANGE OVER CONTROL,[3]; gene LCP2,−11.85
same,MEAN FOLD CHANGE OVER CONTROL,[3]; gene LIMS2,−57.61
same,MEAN FOLD CHANGE OVER CONTROL,[3]; gene LNX,−87.48
same,MEAN FOLD CHANGE OVER CONTROL,[3]; gene LPAAT-E (first entry),−11.94
same,MEAN FOLD CHANGE OVER CONTROL,[3]; gene LPAAT-E (second entry),−2.40
same,MEAN FOLD CHANGE OVER CONTROL,[3]; gene LRP1B,−15.01
same,MEAN FOLD CHANGE OVER CONTROL,[3]; gene LTB,−12.57
same,MEAN FOLD CHANGE OVER CONTROL,[3]; gene MAD2L1,−3.14
same,MEAN FOLD CHANGE OVER CONTROL,[3]; gene MAP6,−12.89
same,MEAN FOLD CHANGE OVER CONTROL,[3]; gene MAPK13,−2.14
same,MEAN FOLD CHANGE OVER CONTROL,[3]; gene MAPT,−26.53
same,MEAN FOLD CHANGE OVER CONTROL,[3]; gene MAZ,−1.89
same,MEAN FOLD CHANGE OVER CONTROL,[3]; gene MCM6,−1.97
same,MEAN FOLD CHANGE OVER CONTROL,[3]; gene MCM7,−2.69
same,MEAN FOLD CHANGE OVER CONTROL,[3]; gene MEA,−2.39
same,MEAN FOLD CHANGE OVER CONTROL,[3]; gene MGAT4A,−10.83
same,MEAN FOLD CHANGE OVER CONTROL,[3]; gene MIS12,−2.20
same,MEAN FOLD CHANGE OVER CONTROL,[3]; gene MPZL1,−2.04
same,MEAN FOLD CHANGE OVER CONTROL,[3]; gene MRPL1,−2.02
same,MEAN FOLD CHANGE OVER CONTROL,[3]; gene MRPL11,−2.97
same,MEAN FOLD CHANGE OVER CONTROL,[3]; gene MRPL13,−2.16
same,MEAN FOLD CHANGE OVER CONTROL,[3]; gene MRPL23,−2.29
same,MEAN FOLD CHANGE OVER CONTROL,[3]; gene MRPL39,−2.20
same,MEAN FOLD CHANGE OVER CONTROL,[3]; gene MSLN,−17.46
same,MEAN FOLD CHANGE OVER CONTROL,[3]; gene MT1A,−16.21
same,MEAN FOLD CHANGE OVER CONTROL,[3]; gene MT2A,−2.09
same,MEAN FOLD CHANGE OVER CONTROL,[3]; gene MTIF2,−59.05
same,MEAN FOLD CHANGE OVER CONTROL,[3]; gene MXD3,−2.66
same,MEAN FOLD CHANGE OVER CONTROL,[3]; gene MYBPC2,−21.22
same,MEAN FOLD CHANGE OVER CONTROL,[3]; gene MYO15A,−50.59
same,MEAN FOLD CHANGE OVER CONTROL,[3]; gene NCF1,−33.67
same,MEAN FOLD CHANGE OVER CONTROL,[3]; gene NCF2,−21.83
same,MEAN FOLD CHANGE OVER CONTROL,[3]; gene NDUFA6,−2.51
same,MEAN FOLD CHANGE OVER CONTROL,[3]; gene NDUFB3,−15.58
same,MEAN FOLD CHANGE OVER CONTROL,[3]; gene NDUFV3,−10.52
same,MEAN FOLD CHANGE OVER CONTROL,[3]; gene NEB,−6.89
same,MEAN FOLD CHANGE OVER CONTROL,[3]; gene NFATC1,−16.69
same,MEAN FOLD CHANGE OVER CONTROL,[3]; gene NFKBIB,−2.01
same,MEAN FOLD CHANGE OVER CONTROL,[3]; gene NMI,−2.41
same,MEAN FOLD CHANGE OVER CONTROL,[3]; gene NMU,−2.12
same,MEAN FOLD CHANGE OVER CONTROL,[3]; gene NR0B1,−15.94
same,MEAN FOLD CHANGE OVER CONTROL,[3]; gene NR2E1,−54.82
same,MEAN FOLD CHANGE OVER CONTROL,[3]; gene NR2E3,−14.89
same,MEAN FOLD CHANGE OVER CONTROL,[3]; gene NRG1,−17.54
same,MEAN FOLD CHANGE OVER CONTROL,[3]; gene NT5C3,−2.08
same,MEAN FOLD CHANGE OVER CONTROL,[3]; gene NT5E,−17.10
same,MEAN FOLD CHANGE OVER CONTROL,[3]; gene NTHL1,−2.34
same,MEAN FOLD CHANGE OVER CONTROL,[3]; gene NUCKS,−2.02
same,MEAN FOLD CHANGE OVER CONTROL,[3]; gene NUDT1,−1.89
same,MEAN FOLD CHANGE OVER CONTROL,[3]; gene NUP107,−2.68
same,MEAN FOLD CHANGE OVER CONTROL,[3]; gene OLR1,−16.33
same,MEAN FOLD CHANGE OVER CONTROL,[3]; gene OXCT,−2.68
same,MEAN FOLD CHANGE OVER CONTROL,[3]; gene PAFAH1B1,−12.85
same,MEAN FOLD CHANGE OVER CONTROL,[3]; gene PAFAH1B2,−2.25
same,MEAN FOLD CHANGE OVER CONTROL,[3]; gene PAICS,−2.03
same,MEAN FOLD CHANGE OVER CONTROL,[3]; gene PCDH7,−19.65
same,MEAN FOLD CHANGE OVER CONTROL,[3]; gene PCSK2,−16.89
same,MEAN FOLD CHANGE OVER CONTROL,[3]; gene PDCD5,−2.21
same,MEAN FOLD CHANGE OVER CONTROL,[3]; gene PDE11A,−16.85
same,MEAN FOLD CHANGE OVER CONTROL,[3]; gene PECAM1,−17.53
same,MEAN FOLD CHANGE OVER CONTROL,[3]; gene PFKL,−10.55
same,MEAN FOLD CHANGE OVER CONTROL,[3]; gene PHAX,−2.17
same,MEAN FOLD CHANGE OVER CONTROL,[3]; gene PHF5A,−2.95
same,MEAN FOLD CHANGE OVER CONTROL,[3]; gene PIR51,−3.73
same,MEAN FOLD CHANGE OVER CONTROL,[3]; gene PLK4,−2.39
same,MEAN FOLD CHANGE OVER CONTROL,[3]; gene PLXNA3,−8.04
same,fold down-regulation of SULT4A1,"[3]; gene SULT4A1, text statement",~300 fold
same,fold down-regulation of the SYNE1 spectrin repeats,"[3]; gene SYNE1, text statement",1500 fold
